According to patent publication US9266829B2, “Quinone compounds and their uses for the treatment of cancer” (Onco-NX Limited, priority 2012, dated 2016):
Values after ≈ are worked out from the molar mass of the structure shown. Values joined by “and” are separate entries in the source; they are usually repeats but may differ in a detail not shown here. Equal values may be shown once. Read-outs that look alike come from different tables or passages of the source.

Key:
MDA468 = assay: IC50 by MTT assay on MDA468 cells; type: cell-based, human
MDA NQ01 = assay: IC50 by MTT assay on NQ01 cells; type: cell-based, human; settings: for MDA468 to NQ01 differential: ratio of IC50 values
physchem [1] = type: physicochemical; settings: buffer, pH 7
physchem [2] = type: physicochemical; settings: buffer, pH 7.4
Procedure: The stability of esters and their hydrolysis products was measured in solution. (50 μM Es5 in Tris buffer (0.1 mol dm^−3) at pH 7.4). Samples were taken at timed intervals up to 24 hours and analysed by HPLC. The detection wavelength was 330 nm. Chromatographic analysis was carried out by isocratic elution with 30:70 MeOH: Tris buffer (0.1 mol dm^−3, pH 7.4), at 1 ml min^−1. The chromatographic separation of the drug was achieved using a Hypersil ODS column with 250 mm×4.6 mm I.D.

H460 NSCLC = assay: In vivo hollow fibre assay, H460; settings: fibres at s.c. site; i.p. dosing days 3-6; nude mice
Procedure: (§1) The activity of Es5 (4.65) was evaluated in vivo against 3 cancer cell lines H460, MDA-MB-468-NQ01 and MDA-MB-468-MOCK using the in vivo hollow fibre assay (HFA), with fibres implanted at both intraperitoneal (i.p.) and subcutaneous (s.c.) sites. Es5 and the control agent Doxorubicin were administered as multiple doses by intraperitoneal injection (i.p.) on days 3, 4, 5 & 6 at 0.5 mg/kg/day and 2.5 mg/kg/day respectively.
(§2) Three human tumour cell lines were selected for analysis: H460 NSCLC (from ICT) and two breast carcinoma lines MDA-MB-468-NQ01 and MDA-MB-468-MOCK (both supplied by Onco-NX). Cells were cultured in RPMI 1640 cell culture medium supplemented with 1 mM sodium pyruvate, 2 mM L-glutamine and 10% foetal bovine serum (all from Sigma), and maintained as monolayer cultures at 37° C. in a humidified 5% CO2 environment.
(§3) Female Balb/C immunodeficient nude mice aged 6-8 weeks were used (Harlan UK, Blackthorn, UK). Mice were kept in cages housed in isolation cabinets in an air-conditioned room with regular alternating cycles of light and darkness. They received Teklad 2018 diet (Harlan, Blackthorn, UK) and water ad libitum. All animal procedures were carried out under a project licence issued by the UK Home Office and UKCCCR guidelines were followed throughout.
Cells were loaded into sterilised colour-coded PVDF Spectra/Por hollow fibres (HF) (Spectrum Medical Inc, Houston, Tex., USA). Briefly cells were harvested and resuspended in cell culture medium at the required cell density. This preparation was then loaded into the HF and the ends were clamped and heat-sealed. […]
(§4) Mice were sacrificed on day 7 post-implantation, fibres removed, and cell survival analysed using a modified MTT assay, comparing absorbances seen for the treated groups with the corresponding untreated control group. […]

MDA-MB-468-NQ01 = assay: In vivo hollow fibre assay, MDA-MB-468-NQ01; design: species or system mice
Procedure: as §1, §2, §3
Cells were loaded into sterilised colour-coded PVDF Spectra/Por hollow fibres (HF) (Spectrum Medical Inc, Houston, Tex., USA). Briefly cells were harvested and resuspended in cell culture medium at the required cell density. This preparation was then loaded into the HF and the ends were clamped and heat-sealed. The HF was then cut into 1.5 cm lengths which were again heat-sealed at both ends, and then transferred to 6-well plates containing medium before implantation for the in vivo experiments, or were incubated at 37° C. in a humidified 5% CO2 environment for varying times before processing using the modified MTT assay as described below.
For the in vivo experiments, under brief inhalation anaesthesia (2% isoflurane), one loaded hollow fibre for each of the cell lines was transplanted intraperitoneally or subcutaneously on the dorsal flank of each mouse and the mice were allowed to recover. Each group consisted of 6 mice and the implantation day was termed ‘day 0’.
For assessment of the therapeutic response of Es5 (4.65), on days 3, 4, 5 & 6 mice were treated with Es5 (4.65) at 0.5 mg/kg/day or Doxorubicin at 2.5 mg/kg/day.
Mice were sacrificed on day 7 post-implantation, fibres removed, and cell survival analysed using a modified MTT assay, comparing absorbances seen for the treated groups with the corresponding untreated control group. Statistical analysis was carried out using a Student's t-test.

MDA-MB-468-MOCK = assay: In vivo hollow fibre assay, MDA-MB-468-MOCK; settings: fibres at s.c. site; i.p. dosing days 3-6; nude mice
Procedure: as §1, §2
as §3, with “All animal procedures were carried out under a project licence issued by the UK Home Office and UKCCCR guidelines were followed throughout.” left out
as §4

recombinant human DTD = recombinant human DTD (Homo sapiens, UniProt P15559); settings: Beall et al.; Ross et al.; cited from earlier work
MDA468 cells = assay: Combination index at IC50 with other anti-cancer agents in MDA468 cells; type: cell-based, human
NQ01 cells = assay: Combination index at IC50 with other anti-cancer agents in NQ01 cells; type: cell-based, human
[3] = cited from earlier work
[4] = Solubility (aqueous and organic)
[5] = Stability in aqueous and organic solution

recombinant human DTD, sequence (P15559 whole entry): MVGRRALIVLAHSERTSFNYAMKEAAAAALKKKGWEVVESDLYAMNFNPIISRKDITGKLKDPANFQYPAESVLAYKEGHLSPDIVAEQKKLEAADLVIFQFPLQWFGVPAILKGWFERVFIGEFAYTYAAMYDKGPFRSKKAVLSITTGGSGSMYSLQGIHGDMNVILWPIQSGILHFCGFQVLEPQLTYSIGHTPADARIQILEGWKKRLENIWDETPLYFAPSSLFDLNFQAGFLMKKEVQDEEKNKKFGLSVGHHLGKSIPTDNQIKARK

O=c1[nH]cc(F)c(=O)[nH]1 [5-fluorouracil]
IC50 (MDA468; Homo sapiens): 7960 nM | IC50 (MDA NQ01; Homo sapiens, MTT assay): 12000 nM

N.N.[Cl][Pt][Cl] [Cisplatin]
IC50 (MDA468): 675 nM | IC50 (MDA NQ01; MTT assay): 570 nM

[Cl][Co][Cl] [Cobalt chloride]
IC50 (MDA468): 35000 nM | IC50 (MDA NQ01; MTT assay): 54000 nM

COc1cccc(C(=O)OCC2=C(N3CC3)C(=O)C(C)=C(N3CC3)C2=O)c1OC [Compound 4-05]
half-life (physchem [1]): < 10 min

COc1ccc(OC)c(C(=O)OCC2=C(N3CC3)C(=O)C(C)=C(N3CC3)C2=O)c1 [Compound 4-07]
half-life (physchem [1]): < 20 min

COc1ccc(C(=O)OCC2=C(N3CC3)C(=O)C(C)=C(N3CC3)C2=O)cc1OC [Compound 4-09]
half-life (physchem [1]): < 30 min

COc1ccc(C(=O)OCC2=C(N3CC3)C(=O)C(C)=C(N3CC3)C2=O)c(OC)c1 [Compound 4-10]
half-life (physchem [1]): < 30 min

COc1cccc(OC)c1C(=O)OCC1=C(N2CC2)C(=O)C(C)=C(N2CC2)C1=O [Compound 4-11]
half-life (physchem [1]): < 30 min

COc1cc(C(=O)OCC2=C(N3CC3)C(=O)C(C)=C(N3CC3)C2=O)cc(OC)c1OC [Compound 4-14]
half-life (physchem [1]): < 30 min

CC1=C(N2CC2)C(=O)C(COC(=O)c2ccc([N+](=O)[O-])cc2)=C(N2CC2)C1=O [Compound 4-20]
half-life (physchem [1]): 20 min

CC1=C(N2CC2)C(=O)C(COC(=O)C(C)C)=C(N2CC2)C1=O [Compound 4-36]
half-life (physchem [1]): < 30 min

CCC(=O)OCC1=C(N2CC2)C(=O)C(C)=C(N2CC2)C1=O [Compound 4-38]
half-life (physchem [1]): 20 min

CC1=C(N2CC2)C(=O)C(COC(=O)C(C)(C)C)=C(N2CC2)C1=O [Compound 4-39]
half-life (physchem [1]): < 30 min

CC1=C(N2CC2)C(=O)C(CCCO)=C(N2CC2)C1=O [Compound 4-61, 2,5-Bisaziridin-1-yl-3-(3-hydroxypropyl)-6-methyl-1,4-benzoquinone]
half-life at 50 μM (physchem [2]): > 1440 min | IC50 (MDA468; Homo sapiens): 17 nM | IC50 (MDA NQ01; Homo sapiens, MTT assay): 0.41 nM | DT diaphorase enhancement ratio (MDA NQ01; IC50 MDA 468 / IC50 MDA NQO1): 41 | selectivity towards cells that express DT-diaphorase (MDA NQ01; IC50 values, MTT assay): excellent selectivity | half-life at 50 μM (physchem [1]): > 1440 min

CC(=O)OCCC1=C(N2CC2)C(=O)C(C)=C(N2CC2)C1=O [Compound 4-70]
half-life (physchem [1]): < 60 min

CC1=C(N2CC2)C(=O)C(CCOC(=O)c2ccccc2)=C(N2CC2)C1=O [Compound 4-71]
half-life (physchem [1]): < 60 min

Nc1ccn([C@@H]2O[C@H](CO)[C@@H](O)[C@@H]2O)c(=O)n1 [Cytosine arabinoside (ARA-C), Cytosine arabinoside]
IC50 (MDA468): 250 nM | IC50 (MDA NQ01; MTT assay): 240 nM

CC(=O)O[C@@]12CO[C@@H]1C[C@H](O)[C@@]1(C)C(=O)[C@H](O)C3=C(C)[C@@H](OC(=O)[C@H](O)[C@@H](NC(=O)OC(C)(C)C)c4ccccc4)C[C@@](O)([C@@H](OC(=O)c4ccccc4)[C@H]21)C3(C)C [Docetaxel]
IC50 (MDA468; Homo sapiens): 1.15 nM | IC50 (MDA NQ01; Homo sapiens, MTT assay): 1.88 nM

COc1cccc2c1C(=O)c1c(O)c3c(c(O)c1C2=O)C[C@@](O)(C(=O)CO)C[C@@H]3O[C@H]1C[C@H](N)[C@H](O)[C@H](C)O1 [Doxorubicin, reference compound]
cell survival compared to the untreated control, H460, s.c. site (H460 NSCLC): did not demonstrate significant efficacy | cell survival compared to the untreated control, MDA-MB-468-NQ01, s.c. site (MDA-MB-468-NQ01; fibres at s.c. site, i.p. dosing days 3-6, nude mice): did not demonstrate significant efficacy | efficacy in the NQ01-expressing compared to the Mock MDA-MB-468 cell line (MDA-MB-468-NQ01; hollow fibre assay): little difference | cell survival compared to the untreated control, MDA-MB-468-MOCK, s.c. site (MDA-MB-468-MOCK): did not demonstrate significant efficacy

COc1cccc2c1C(=O)c1c(O)c3c(c(O)c1C2=O)C[C@@](O)(C(=O)CO)C[C@@H]3O[C@H]1C[C@H](N)[C@@H](O)[C@H](C)O1 [Epirubicin]
IC50 (MDA468; Homo sapiens): 23.2 nM | IC50 (MDA NQ01; Homo sapiens, MTT assay): 27.5 nM

CC1=C(N2CC2)C(=O)C(C)=C(N2CC2)C1=O [MeDZQ, 2,5-diaziridinyl-3,6-dimethyl-1,4-benzoquinone]
effectiveness as a substrate for recombinant human DTD relative to mitomycin C (recombinant human DTD): more than 150 fold

CN(Cc1cnc2nc(N)nc(N)c2n1)c1ccc(C(=O)N[C@@H](CCC(=O)O)C(=O)O)cc1 [Methotrexate]
IC50 (MDA468; Homo sapiens): 45 nM | IC50 (MDA NQ01; Homo sapiens, MTT assay): 27 nM

CO[C@@]12[C@H](COC(N)=O)C3=C(C(=O)C(C)=C(N)C3=O)N1C[C@@H]1N[C@@H]12 [Mitomycin C]
IC50 (MDA468): 50 nM | IC50 (MDA NQ01; MTT assay): 10 nM | MDA468 to NQ01 differential (MDA NQ01): ~5 fold

CC1=C(N2CC2)C(=O)C(CO)=C(N2CC2)C1=O [RH1, 2,5-diaziridiny 1-3-(hydroxymethyl)-6-methyl-1,4-benzoquinone]
IC50 (MDA468): 4.41 nM and 3.5 nM | IC50 (MDA NQ01; MTT assay): 0.12 nM | MDA468 to NQ01 differential (MDA NQ01): > 30 fold | Combination index at IC50 with ARC-C in MDA468 cells (MDA468 cells; with ARC-C): 1.45 (slight | Combination index at IC50 with Cis-platinum in MDA468 (MDA468 cells; with Cis-platinum): 0.499 (synergy) | Combination index at IC50 with Docetaxel in MDA468 cells (MDA468 cells; with Docetaxel): 0.850 (slight | Combination index at IC50 with Epirubicin in MDA468 cells (MDA468 cells; with Epirubicin): 4.81 (strong | Combination Index at IC50 with Mitomycin C in MDA468 cells (MDA468 cells; with Mitomycin C): 0.577 (synergy) | Combination index at IC50 with cobalt chloride in MDA468 cells (MDA468 cells; with cobalt chloride): 0.170 (strong | Combination index at IC50 with ARA-C in NQ01 cells (NQ01 cells; with ARA-C): 1.22 (slight | Combination index at IC50 with Cis-platinum in MDA NQ01 (NQ01 cells; with Cis-platinum): 0.672 (synergy) | Combination index at IC50 with Docetaxel in NQ01 cells (NQ01 cells; with Docetaxel): 0.864 (slight | Combination index at IC50 with Epirubicin in NQ01 cells (NQ01 cells; with Epirubicin): 2.09 (antagonism) | Combination Index at IC50 with Mitomycin C in NQ01 cells (NQ01 cells; with Mitomycin C): 1.2 (slight | Combination index at IC50 with cobalt chloride in NQ01 cells (NQ01 cells; with cobalt chloride): 0.80 (moderate | pH stability, t1/2 ([3]; pH 4.16, from AAPS PharmSciTech 2007): t1/2 = 0.07 days | pH stability, t1/2 ([3]; pH 7.33, from AAPS PharmSciTech 2007): t1/2 = 43.52 days | pH stability, t1/2 ([3]; pH 9.82, nearest comparison from AAPS PharmSciTech 2007, 8 (1) Article 16): t1/2 = 0.96 days | Temperature stability, t90 (Temperature stability; 4 C.): 4 C. t90 >7 days | Temperature stability, t90 (Temperature stability; 40 C.): 40 C. t90 2 days | Temperature stability, t1/2 (Temperature stability; 55 C.): 55 C. t1/2 2 days | Temperature stability, t90 (Temperature stability; Ambient): Ambient t90 3 days | Solubility (organic) ([4]; DMSO/chloroform): >30 mg/mL | Solubility (aqueous) ([4]; water): 0.5 mg/mL (water) (≈ 2.13 mM) | Stability (aqueous) [5]: >7 days | Stability (organic) ([5]; in words): months

CC[C@]1(O)C[C@@H]2CN(CCc3c([nH]c4ccccc34)[C@@](C(=O)OC)(c3cc4c(cc3OC)N(C)[C@H]3[C@@](O)(C(=O)OC)[C@H](OC(C)=O)[C@]5(CC)C=CCN6CC[C@]43[C@@H]65)C2)C1 [Vinblastine]
IC50 (MDA468; Homo sapiens): 16 nM | IC50 (MDA NQ01; Homo sapiens, MTT assay): 18.3 nM
